Measured values reported in patent publication US20080194646A1, “Methods For Avoiding Edema in the Treatment of Metabolic, Inflammatory, and Cardiovascular Disorders” (priority 2005, published 2008).
Read-outs that look alike come from different tables or passages of the source.

How the values were obtained:
cytochrome P450 2C9 = cytochrome P450 2C9 (Homo sapiens, UniProt P11712); conditions: comparison of enantiomers and racemate, cited from earlier work
rats = experiment: separate animal studies, heart weight and fluid accumulation (rats); format: in vivo; conditions: therapeutically relevant doses, data not shown
[1] = test system: human subjects also receiving glyburide; experiment: 14 days of treatment in human subjects also receiving glyburide; format: in vivo
From the text: The data for pioglitazone (Actos) is taken from Goldberg R B et al., Diabetes Care 28(7):1547-54 (2005), which is incorporated herein by reference.

monkeys = experiment: separate animal studies, heart weight and fluid accumulation (monkeys); format: in vivo; conditions: therapeutically relevant doses, data not shown
[2] = test system: type 2 diabetics with inadequate control on insulin; experiment: two randomized, double-blind, placebo-controlled studies on type 2 diabetics with inadequate control on insulin; format: in vivo, human
From the text: Example 9 presents the results of two randomized, double-blind, placebo-controlled, multi-centre studies on type 2 diabetics with inadequate control on insulin. […] Both studies were about 4 months long, with a stabilization/run in period for 2 to 4 weeks and a 3 month treatment period. Endpoints included fasting plasma glucose (FPG), HbA1c, weight, and the incidence of edema.

PPARγ = molecular target: T1, PPARγ (Homo sapiens, UniProt P37231); experiment: PPARγ partial agonism (Example 8, FIG. 6); format: cell-based
T1 sequence (P37231 1-505): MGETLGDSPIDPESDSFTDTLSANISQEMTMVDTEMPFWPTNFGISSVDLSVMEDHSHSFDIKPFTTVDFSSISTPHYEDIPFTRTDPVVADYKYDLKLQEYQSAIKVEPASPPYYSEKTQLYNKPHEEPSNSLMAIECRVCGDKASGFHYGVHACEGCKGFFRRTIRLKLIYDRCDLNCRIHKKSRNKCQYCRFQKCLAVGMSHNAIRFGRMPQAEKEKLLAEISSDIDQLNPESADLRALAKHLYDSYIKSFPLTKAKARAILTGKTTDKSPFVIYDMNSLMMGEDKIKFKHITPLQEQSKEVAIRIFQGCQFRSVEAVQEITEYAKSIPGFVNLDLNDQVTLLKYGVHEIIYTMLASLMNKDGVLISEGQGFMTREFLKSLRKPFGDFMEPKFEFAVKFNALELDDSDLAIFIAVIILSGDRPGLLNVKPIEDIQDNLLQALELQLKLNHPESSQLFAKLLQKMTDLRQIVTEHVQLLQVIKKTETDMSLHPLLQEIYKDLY

C57BL/6j ob/ob Mice [3] = experiment: glucose lowering activity of halofenate analogs in ob/ob mice (Example 14); format: in vivo; conditions: 125 mg/kg oral gavage once a day for 1-3 days; Student unpaired t-test
Method: Male, 8-9 weeks old, C57BL/6J ob/ob mice were purchased from The Jackson Laboratory (Bar Harbor, Me., USA). Animals were housed (4-5 mice/cage) under standard laboratory conditions at 22±3° C. temperature and 50±20% relative humidity, and were maintained on a diet of Purina rodent chow and water ad libitum. Prior to treatment, blood was collected from the tail vein of each animal. Mice that had non-fasting plasma glucose levels between 250 and 500 mg/dl were used. Each treatment group consisted of 8-10 mice that were distributed so that the mean glucose levels were equivalent in each group at the start of the study. Mice were dosed orally by gavage once a day for 1-3 days with either vehicle, (−) halofenic acid, (+) analog 14, 29, 33, 34, 35, 36, 37, or 38 at 125 mg/kg or (−) analog 29, 36, 37 or 38 at 150 mg/kg. Compounds were delivered in a liquid formulation containing 5% (v/v) dimethyl sulfoxide (DMSO), 1% (v/v) tween 80 and 0.9% (w/v) methylcellulose. The gavage volume was 10 ml/kg. Blood samples were taken at 6 hours after the each dose and analyzed for plasma glucose. Food intake and body weight were measured daily. Plasma glucose concentrations were determined colorimetrically using glucose oxidase method (Sigma Chemical Co, St. Louis, Mo., USA). Significant difference between groups (comparing drug-treated to vehicle-treated) was evaluated using the Student unpaired t-test.

C57BL/6j ob/ob Mice [4] = experiment: anti-diabetic activity in C57BL/6j ob/ob mice (Example 13); format: in vivo; conditions: oral gavage once a day for 1-4 days; for Potency: glucose lowering, 5 to 125 mg/kg, plasma glucose 6 hours after each dose
Method: The anti-diabetic activities of the compounds were evaluated in the C57BL/6j ob/ob Mice model.
Male, 7-9 weeks old, C57BL/6J ob/ob mice were purchased from The Jackson Laboratory (Bar Harbor, Me., USA). Animals were housed (4-5 mice/cage) under standard laboratory conditions at 22±3° C. temperature and 50±20% relative humidity, and were maintained on a diet of Purina rodent chow and water ad libitum. Prior to treatment, blood was collected from the tail vein of each animal. Mice that had non-fasting plasma glucose levels between 250 and 500 mg/dl were used. Each treatment group consisted of 8-10 mice that were distributed so that the mean glucose levels were equivalent in each group at the start of the study. Mice were dosed orally by gavage once a day for 1-4 days with vehicle and one or more dose of test compound at a dose ranging from 5 to 125 mg/kg. Compounds were delivered in a liquid formulation containing 5% (v/v) dimethyl sulfoxide (DMSO), 1% (v/v) Tween 80® and 0.9% (w/v) methylcellulose. The gavage volume was 10 ml/kg. Blood samples were taken at 6 hours after the each dose and analyzed for plasma glucose. Food intake and body weight were measured daily. Plasma glucose concentrations were determined colorimetrically using a commercial glucose oxidase method (Sigma Chemical Co, St. Louis, Mo., USA). Significant difference between groups (comparing drug-treated to vehicle-treated) was evaluated using the Student unpaired t-test.
The following table summarizes the anti-diabetic effects of selected compounds of the present invention and provides their relative potency. […] For example, a compound at 25 mg/kg that lowered the animal glucose level from 400 mg/dL (vehicle group value) to 250 mg/dL, is assigned the potency of +++.

Sequence of cytochrome P450 2C9 (P11712 whole entry): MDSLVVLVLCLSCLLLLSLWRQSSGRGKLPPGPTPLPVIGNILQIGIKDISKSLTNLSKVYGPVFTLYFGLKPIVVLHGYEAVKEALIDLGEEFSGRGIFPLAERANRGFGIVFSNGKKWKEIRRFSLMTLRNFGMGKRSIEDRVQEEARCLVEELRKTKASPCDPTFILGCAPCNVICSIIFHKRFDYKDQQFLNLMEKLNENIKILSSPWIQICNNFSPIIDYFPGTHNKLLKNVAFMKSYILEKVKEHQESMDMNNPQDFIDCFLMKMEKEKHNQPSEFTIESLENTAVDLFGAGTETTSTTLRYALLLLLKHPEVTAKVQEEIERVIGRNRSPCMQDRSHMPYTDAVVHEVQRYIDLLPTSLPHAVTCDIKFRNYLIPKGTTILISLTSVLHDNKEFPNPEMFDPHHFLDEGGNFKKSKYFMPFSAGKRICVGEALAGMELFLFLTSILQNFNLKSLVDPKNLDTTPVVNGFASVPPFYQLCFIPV

## O=C(O)C(Oc1cccc(C(F)(F)F)c1)c1ccc(Cl)cc1 (racemic) [racemic halofenic acid, 4-Chlorophenyl-(3-trifluoromethylphenoxy)-acetic Acid]
Cytochrome P450 2C9
  inhibition of cytochrome P450 2C9: found to inhibit cytochrome P450 2C9

## O=C(O)C(Oc1cccc(C(F)(F)F)c1)c1ccc(Cl)cc1 (single isomer, unassigned; (+)) [(+) enantiomer of halofenic acid, (+) 4-chlorophenyl-(3-trifluoromethylphenoxy)-acetic acid]
Cytochrome P450 2C9
  inhibition of cytochrome P450 2C9: quite potent

## CC(=O)NCCOC(=O)C(Oc1cccc(C(F)(F)F)c1)c1ccc(Cl)cc1 (single isomer, unassigned; (-)) [(−) halofenate, (−) 2-acetamidoethyl 4-chlorophenyl-(3-trifluoromethylphenoxy)acetate]
rats
  heart weight or fluid accumulation: did not cause increases at therapeutically relevant doses in heart weight or fluid accumulation
[1]; human patients, 14 days of treatment, dose dependent (FIG. 20)
  hsCRP levels: lower hsCRP levels
[1]; patients also receiving glyburide, 14 days of treatment (FIG. 19)
  blood glucose levels: substantially lower blood glucose levels
monkeys
  heart weight or fluid accumulation: did not cause increases at therapeutically relevant doses in heart weight or fluid accumulation
[2]; additional analyses, data not shown
  adverse effects on selected parameters: upper GI tract, liver, blood, kidney: not associated with an excess of adverse effects
[2]; additional results, data not shown
  serum triglycerides: lowered serum triglycerides substantially
[2]; both studies, dose range 200- to 600 mg (FIG. 17)
  incidence of edema formation compared to combined placebo groups: did not increase the incidence of edema formation
[2]; first study, 200 mg group
  Discontinued due to AE: 3 (4.1%)
[2]; first study, 400 mg group
  Discontinued due to AE: 3 (4.3%)
[2]; first study, 200- and 400 mg (FIG. 8)
  plasma glucose levels as judged by HbA1c compared to placebo: lowered plasma glucose levels as judged by HbA1c levels
[2]; first study, 200- and 400 mg (FIG. 9)
  edema formation compared to placebo: prevented edema formation
[2]; first study, 200- and 400 mg (FIG. 10)
  weight gain compared to placebo: did not induce weight gain
[2]; first study, 200- and 400 mg, 3 month treatment (FIG. 7)
  fasting plasma glucose levels compared to placebo: lowered fasting plasma glucose levels
[2]; first study, 200- and 400 mg, sites 60 and 70 removed (FIG. 15)
  plasma glucose levels as judged by HbA1c compared to placebo: lowered plasma glucose levels as judged by HbA1c levels
[2]; first study, 200- and 400 mg, sites 60 and 70 removed (FIG. 16)
  fasting plasma glucose levels compared to placebo: lowered fasting plasma glucose levels
[2]; second study, 600 mg (FIG. 11)
  fasting plasma glucose levels compared to placebo: lowered fasting plasma glucose levels
[2]; second study, 600 mg (FIG. 18)
  weight gain compared to placebo: did not induce weight gain
[2]; second study, 600 mg, all sites, placebo group demonstrated a comparable response (FIG. 12)
  plasma glucose levels as judged by HbA1c: lowered plasma glucose levels as judged by HbA1c levels in the experimental group substantially from baseline
[2]; second study, 600 mg, sites 60 and 70 removed (FIG. 13)
  plasma glucose levels as judged by HbA1c compared to placebo: lowered plasma glucose levels as judged by HbA1c levels
[2]; second study, 600 mg, sites 60 and 70 removed (FIG. 14)
  fasting plasma glucose levels compared to placebo: lowered fasting plasma glucose levels
PPARγ
  ability to induce PPARγ expression: a few fold
  antagonism of the agonist activity of rosiglitazone: significantly antagonizing the agonist activity of rosiglitazone

## O=C(O)C(Oc1cccc(C(F)(F)F)c1)c1ccc(Cl)cc1 (single isomer, unassigned; (-)) [(−)halofenic acid, (−) (3-trifluoromethylphenoxy) (4-chlorophenyl)acetic acid]
Cytochrome P450 2C9; listed as (−) enantiomer of halofenic acid
  inhibition of cytochrome P450 2C9: about twenty-fold less active
C57BL/6j ob/ob Mice [3]
  plasma glucose concentrations vs vehicle: significantly reduced plasma glucose concentrations at 6 hours

## O=C(O)C(Oc1ccccc1-c1nc2ccccc2o1)c1ccc(Cl)cc1 (centres unmarked) [Compound I-1]
C57BL/6j ob/ob Mice [4]
  Potency: ++ (effective for glucose lowering at a dose of >25 mg/kg but <125 mg/kg)
  Insulin Level compared with vehicle: Lower

## O=C(O)C(Oc1ccccc1-c1nc2ccccc2o1)c1cccc(C(F)(F)F)c1 (centres unmarked) [Compound I-3]
C57BL/6j ob/ob Mice [4]
  Potency: + (effective for glucose lowering at the dose of ≧125 mg/kg)
  Insulin Level compared with vehicle: Lower

## O=C(O)C(Oc1ccc(C(F)(F)F)cc1-c1nc2ccccc2o1)c1cccc(C(F)(F)F)c1 (centres unmarked) [Compound I-89]
C57BL/6j ob/ob Mice [4]
  Potency: +++ (effective for glucose lowering at a dose of ≦25 mg/kg)
  Insulin Level compared with vehicle: Lower

## O=C(O)C(Oc1ccc(Cl)cc1-c1nc2ccccc2o1)c1ccc(Cl)cc1 (centres unmarked) [Compound I-190]
C57BL/6j ob/ob Mice [4]
  Potency: +++ (effective for glucose lowering at a dose of ≦25 mg/kg)
  Insulin Level compared with vehicle: Lower

## O=C(O)C(Oc1ccc(Cl)cc1-c1nc2ccccc2o1)c1cccc(C(F)(F)F)c1 (centres unmarked) [Compound I-191]
C57BL/6j ob/ob Mice [4]
  Potency: +++ (effective for glucose lowering at a dose of ≦25 mg/kg)
  Insulin Level compared with vehicle: Lower

## COc1ccc(C(Oc2ccc(Cl)cc2-c2nc3ccccc3o2)C(=O)O)cc1 (centres unmarked) [Compound I-193]
C57BL/6j ob/ob Mice [4]
  Potency: +++ (effective for glucose lowering at a dose of ≦25 mg/kg)
  Insulin Level compared with vehicle: Lower

## O=C(O)C(Oc1ccc(Cl)cc1-c1nc2ccccc2o1)c1cccc(Cl)c1 (centres unmarked) [Compound I-194]
C57BL/6j ob/ob Mice [4]
  Potency: +++ (effective for glucose lowering at a dose of ≦25 mg/kg)
  Insulin Level compared with vehicle: Lower

## O=C(O)C(Oc1ccc(C(F)(F)F)cc1-c1nc2ccccc2o1)c1ccccc1 (centres unmarked) [Compound I-369]
C57BL/6j ob/ob Mice [4]
  Potency: +++ (effective for glucose lowering at a dose of ≦25 mg/kg)
  Insulin Level compared with vehicle: Lower

## O=C(O)C(Oc1ccc(C(F)(F)F)cc1-c1nc2ccccc2o1)c1ccc(Cl)cc1 (centres unmarked) [Compound I-372]
C57BL/6j ob/ob Mice [4]
  Potency: +++ (effective for glucose lowering at a dose of ≦25 mg/kg)
  Insulin Level compared with vehicle: Lower

## CC(Oc1ccc(C(F)(F)F)cc1-c1nc2ccccc2o1)(C(=O)O)c1ccccc1 (centres unmarked) [Ia-365]
C57BL/6j ob/ob Mice [4]
  Potency: +++ (effective for glucose lowering at a dose of ≦25 mg/kg)
  Insulin Level compared with vehicle: Lower

## CC(Oc1ccc(C(F)(F)F)cc1-c1nc2ccccc2o1)(C(=O)O)c1ccccc1 (centres unmarked) [Ia-366]
C57BL/6j ob/ob Mice [4]
  Potency: +++ (effective for glucose lowering at a dose of ≦25 mg/kg)
